Laboratory results taken from the supplement of paper PMC10307832.

Experiments:
Experiment in all cases: relative viability (nuclei count vs DMSO), 5 days (fraction); higher = more cells survive
Kobe2602 + Dasatinib = compound: C1=CC(=CC=C1NC(=S)NNC2=C(C=C(C=C2[N+](=O)[O-])C(F)(F)F)[N+](=O)[O-])F [Kobe2602] + Cc1nc(Nc2ncc(C(=O)Nc3c(C)cccc3Cl)s2)cc(N2CCN(CCO)CC2)n1 [Dasatinib] (partner 0.075 µM)
Summary of the method: (§1)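 A single step with final 0.05% Triton X-100, 1% formaldehyde and 1 ug/ml Hoechst fixed the cells and stained nuclei 5 days after treatment. Lung cancer cell lines in 1536-well plates had been treated by pin tool the day after seeding with one drug alone or a fixed anchor-drug dose plus five library-drug doses (not always all listed) in √10 steps, and nuclei were counted on 4× images. Relative viability is the ratio of nuclei in treated wells to nuclei in vehicle wells, taken as the median of duplicate plates.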

Kobe2602 + Luminespib = compound: C1=CC(=CC=C1NC(=S)NNC2=C(C=C(C=C2[N+](=O)[O-])C(F)(F)F)[N+](=O)[O-])F [Kobe2602] + CCNC(=O)c1noc(-c2cc(C(C)C)c(O)cc2O)c1-c1ccc(CN2CCOCC2)cc1 [Luminespib] (partner 0.01 µM)
Summary of the method: as §1

Zosuquidar + Vorinostat = compound: O[C@@H](COc1cccc2ncccc12)CN1CCN([C@@H]2c3ccccc3[C@@H]3[C@H](c4ccccc42)C3(F)F)CC1 [Zosuquidar] + O=C(CCCCCCC(=O)Nc1ccccc1)NO [Vorinostat] (partner 1 µM)
Summary of the method: as §1

Cabozantinib + OSI-027 = compound: COc1cc2nccc(Oc3ccc(NC(=O)C4(C(=O)Nc5ccc(F)cc5)CC4)cc3)c2cc1OC [Cabozantinib] + COc1cccc2cc(-c3nc([C@H]4CC[C@H](C(=O)O)CC4)n4ncnc(N)c34)[nH]c12 [OSI-027] (partner 0.5 µM)
Summary of the method: as §1

Cell Line | relative viability (Kobe2602 + Dasatinib; first compound 0.2 µM) | relative viability (Kobe2602 + Dasatinib; first compound 0.6325 µM) | relative viability (Kobe2602 + Dasatinib; first compound 2 µM) | relative viability (Kobe2602 + Dasatinib; first compound 6.325 µM) | relative viability (Kobe2602 + Dasatinib; first compound 20 µM) | relative viability (Kobe2602 + Luminespib; first compound 0.2 µM) | relative viability (Kobe2602 + Luminespib; first compound 0.6325 µM) | relative viability (Kobe2602 + Luminespib; first compound 2 µM) | relative viability (Kobe2602 + Luminespib; first compound 6.325 µM) | relative viability (Kobe2602 + Luminespib; first compound 20 µM) | relative viability (Zosuquidar + Vorinostat; first compound 0.01 µM) | relative viability (Zosuquidar + Vorinostat; first compound 0.03162 µM) | relative viability (Zosuquidar + Vorinostat; first compound 0.1 µM) | relative viability (Zosuquidar + Vorinostat; first compound 0.3162 µM) | relative viability (Zosuquidar + Vorinostat; first compound 1 µM) | relative viability (Cabozantinib + OSI-027; first compound 0.02 µM) | relative viability (Cabozantinib + OSI-027; first compound 0.06325 µM) | relative viability (Cabozantinib + OSI-027; first compound 0.2 µM) | relative viability (Cabozantinib + OSI-027; first compound 0.6325 µM) | relative viability (Cabozantinib + OSI-027; first compound 2 µM)
NCI-H2405 | 0.24 | 0.211 | 0.215 | 0.228 | 0.228 | 0.674 | 0.694 | 0.73 | 0.771 | 0.719 | 1.07 | 0.963 | 1.01 | 1.05 | 0.31 | 0.338 | 0.699 | 0.735 | 0.651 | 0.682
NCI-H3122 | 0.853 | 0.806 | 0.739 | 0.465 | 1 | 0.074 | 0.0661 | 0.0867 | 0.102 | 0.0834 | 0.984 | 1.03 | 0.894 | 1.07 | 1.07 | 0.97 | 0.963 | 1.07 | 1.06 | 1.4
PC-3 [JPC-3] | 1.01 | 0.949 | 0.996 | 0.944 | 0.99 | 0.746 | 0.799 | 0.713 | 0.748 | 0.649 | 0.817 | 0.91 | 0.589 | 0.916 | 0.416 | 0.652 | 0.934 |  | 0.925 | 0.768
PC-14 | 0.253 | 0.253 | 0.259 | 0.211 | 0.139 | 0.16 | 0.161 | 0.307 | 0.151 | 0.149 | 0.826 | 0.673 | 0.721 | 0.831 | 0.761 | 0.388 | 0.973 | 0.0936 | 1.03 | 0.865
RERF-LC-KJ | 0.769 | 0.714 | 0.652 | 0.556 | 0.405 | 1.12 | 1.17 | 1.2 | 1.03 | 0.515 | 0.728 | 0.707 | 0.694 | 0.772 | 0.683 | 0.498 | 0.623 | 0.547 | 0.602 | 0.645
SK-LU-1 | 0.18 | 0.184 | 0.177 | 0.17 | 0.187 | 0.204 | 0.222 | 0.189 | 0.188 | 0.205 | 0.828 | 0.829 | 0.839 | 0.926 | 0.761 | 0.3 | 0.37 | 0.394 | 0.298 | 0.312
SK-MES-1 | 0.368 | 0.489 | 0.4 | 0.415 | 0.305 | 0.67 | 0.778 | 0.853 | 0.832 | 0.406 | 1.03 | 1.06 | 0.929 | 1.13 | 1.18 | 0.542 | 0.718 | 0.649 | 0.665 | 0.512
SW 900 | 0.463 | 0.836 | 0.586 | 0.537 | 0.898 | 0.164 | 0.185 | 0.191 | 0.166 | 0.199 | 0.431 | 0.464 |  | 0.567 | 0.527 | 0.637 | 0.695 | 0.637 | 0.554 | 0.376
SW 1573 | 0.473 | 0.655 | 0.58 | 0.483 | 0.243 | 0.202 | 0.212 | 0.21 | 0.458 | 0.0872 | 0.584 | 0.831 | 1.23 | 0.851 | 0.928 | 0.59 | 0.891 | 0.669 | 0.606 | 0.492
